Experimental data reported in article PMC8617031, “Development of a BCL-xL and BCL-2 dual degrader with improved anti-leukemic activity,” (Nature Communications, 2021).
Values joined by “and” are separate entries in the source; they are usually repeats but may differ in a detail not shown here. Equal entries are not always repeated. Where two headings read alike, the source gives them in different places.

Experiments:
His-tagged BCL-xL = target: T1, His-tagged BCL-xL (Homo sapiens, UniProt Q07817); assay: AlphaScreen competitive binary binding, BCL-xL (biotin-BAD peptide)
T1 construct: purchased Sigma-Aldrich SRP0187
Description: (§1) The reagents were diluted in a buffer containing 250 mM HEPES pH 7.5, 1 M NaCl, 1% BSA, and 0.05% Tween-80. His-tagged BCL-xL (0.5 nM, Cat. No. SRP0187, Sigma-Aldrich) or BCL-2 (1 nM, Cat. No. SRP0186, Sigma-Aldrich) were incubated with serial diluted 753a or 753b and 2 nM biotin-tagged BAD (biotin-[…] amino-terminal, AnaSpec, for BCL-xL) or 10 nM BIM peptides (biotin-[…] N-terminal, AnaSpec, for BCL-2) to a final volume of 40 µl in a 96-well PCR plate. […] After incubation for 2 h, 5 µl 6× His-acceptor beads (Cat. No. AL128M, PerkinElmer) were added to each well at 20 µg/ml final concentration and incubated for 1 h. Then 5 µl streptavidin-donor beads were added (Cat. No. 6760002, PerkinElmer) to each well at 20 µg/ml final concentration and incubated for 45 min. At the end of the incubation period, 17 µl of each sample was transferred in adjacent wells of 384-well proxy plate (Cat. No. 6008280, PerkinElmer). The plate was scanned using the Alpha program on Biotek’s Synergy Neo2 multimode plate reader. The inhibition constant (Ki) was calculated using the non-linear regression, one site, competitive binding, Fit Ki function on GraphPad Prism 9 software, based on experimentally determined dissociation constant (Kd) for each protein–peptide pair.

His-tagged BCL-2 = target: T2, His-tagged BCL-2 (Homo sapiens, UniProt P10415); assay: AlphaScreen competitive binary binding, BCL-2 (biotin-BIM peptide); settings: for Alpha signal normalised to Maximum/Minimum (inhibition): in % (unit assumed)
T2 construct: purchased Sigma-Aldrich SRP0186
Description: as §1

T1 sequence (Q07817 whole entry): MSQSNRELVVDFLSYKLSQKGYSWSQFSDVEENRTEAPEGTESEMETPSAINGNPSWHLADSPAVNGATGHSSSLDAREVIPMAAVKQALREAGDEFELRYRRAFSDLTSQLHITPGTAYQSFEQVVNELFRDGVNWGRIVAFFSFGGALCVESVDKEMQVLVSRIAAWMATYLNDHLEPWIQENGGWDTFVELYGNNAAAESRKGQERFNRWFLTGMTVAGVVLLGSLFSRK
T2 sequence (P10415 whole entry): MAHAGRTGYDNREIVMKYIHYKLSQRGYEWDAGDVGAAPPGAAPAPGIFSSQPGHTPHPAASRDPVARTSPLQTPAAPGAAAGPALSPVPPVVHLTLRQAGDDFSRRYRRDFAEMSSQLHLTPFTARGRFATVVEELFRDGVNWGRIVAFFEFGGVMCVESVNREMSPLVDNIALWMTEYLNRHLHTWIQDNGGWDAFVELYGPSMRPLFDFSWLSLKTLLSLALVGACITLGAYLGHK

Alpha signal (raw counts) (His-tagged BCL-xL; BCL-xL Rep-1, plate row H, 0.0012207 uM): 1053850 and 1038882
Alpha signal (raw counts) (His-tagged BCL-xL; BCL-xL Rep-1, plate row I, 0.000305176 uM): 993971 and 1044138
Alpha signal (raw counts) (His-tagged BCL-xL; BCL-xL Rep-1, plate row J, 7.62939e-5 uM): 1100587 and 1144199
Alpha signal (raw counts) (His-tagged BCL-xL; BCL-xL Rep-1, plate row K, 1.90735e-5 uM): 1236998 and 1302696
Alpha signal (raw counts) (His-tagged BCL-xL; BCL-xL Rep-2, 7.62939e-5 uM): 1461205 and 1360749
Alpha signal normalised to Maximum/Minimum (inhibition) (His-tagged BCL-xL; BCL-xL Rep-2, 0.000305176 uM, 0.000305176 µM): 14.6957
inhibition at 0.000305176 µM (His-tagged BCL-xL; BCL-xL Rep-2, 0.000305176 uM, read-out: Alpha signal normalised to Maximum/Minimum (inhibition)): 13%
Alpha signal normalised to Maximum/Minimum (inhibition) (His-tagged BCL-xL; BCL-xL Rep-2, 0.0012207 uM, 0.0012207 µM): 16.3472
inhibition at 0.0012207 µM (His-tagged BCL-xL; BCL-xL Rep-2, 0.0012207 uM, read-out: Alpha signal normalised to Maximum/Minimum (inhibition)): 24%
Alpha signal normalised to Maximum/Minimum (inhibition) (His-tagged BCL-xL; BCL-xL Rep-2, 0.00488281 uM, 0.00488281 µM): 45.5298
inhibition at 0.00488281 µM (His-tagged BCL-xL; BCL-xL Rep-2, 0.00488281 uM, read-out: Alpha signal normalised to Maximum/Minimum (inhibition)): 46%
Alpha signal normalised to Maximum/Minimum (inhibition) (His-tagged BCL-xL; BCL-xL Rep-2, 0.0195312 uM, 0.0195312 µM): 63.2992
inhibition at 0.0195312 µM (His-tagged BCL-xL; BCL-xL Rep-2, 0.0195312 uM, read-out: Alpha signal normalised to Maximum/Minimum (inhibition)): 60.9%
Alpha signal normalised to Maximum/Minimum (inhibition) (His-tagged BCL-xL; BCL-xL Rep-2, 0.078125 uM, 0.078125 µM): 91.4929
inhibition at 0.078125 µM (His-tagged BCL-xL; BCL-xL Rep-2, 0.078125 uM, read-out: Alpha signal normalised to Maximum/Minimum (inhibition)): 89.7%
Alpha signal normalised to Maximum/Minimum (inhibition) (His-tagged BCL-xL; BCL-xL Rep-2, 0.3125 uM, 0.3125 µM): 98.2227
inhibition at 0.3125 µM (His-tagged BCL-xL; BCL-xL Rep-2, 0.3125 uM, read-out: Alpha signal normalised to Maximum/Minimum (inhibition)): 97.4%
Alpha signal normalised to Maximum/Minimum (inhibition) (His-tagged BCL-xL; BCL-xL Rep-2, 1.25 uM, 1.25 µM): 99.5826
inhibition at 1.25 µM (His-tagged BCL-xL; BCL-xL Rep-2, 1.25 uM, read-out: Alpha signal normalised to Maximum/Minimum (inhibition)): 100%
Alpha signal normalised to Maximum/Minimum (inhibition) (His-tagged BCL-xL; BCL-xL Rep-2, 5 uM, 5 µM): 99.8318
inhibition at 5 µM (His-tagged BCL-xL; BCL-xL Rep-2, 5 uM, read-out: Alpha signal normalised to Maximum/Minimum (inhibition)): 99%
Alpha signal (raw counts) (His-tagged BCL-xL; BCL-xL Rep-2, plate row B, 5 uM): 36635 and 25525
Alpha signal (raw counts) (His-tagged BCL-xL; BCL-xL Rep-2, plate row C, 1.25 uM): 22256 and 28959
Alpha signal (raw counts) (His-tagged BCL-xL; BCL-xL Rep-2, plate row D, 0.3125 uM): 58501 and 47695
Alpha signal (raw counts) (His-tagged BCL-xL; BCL-xL Rep-2, plate row E, 0.078125 uM): 165323 and 140416
Alpha signal (raw counts) (His-tagged BCL-xL; BCL-xL Rep-2, plate row F, 0.0195312 uM): 561843 and 528857
Alpha signal (raw counts) (His-tagged BCL-xL; BCL-xL Rep-2, plate row G, 0.00488281 uM): 767546 and 773677
Alpha signal (raw counts) (His-tagged BCL-xL; BCL-xL Rep-2, plate row H, 0.0012207 uM): 1070160 and 1175743
Alpha signal (raw counts) (His-tagged BCL-xL; BCL-xL Rep-2, plate row I, 0.000305176 uM): 1221423 and 1198497
Alpha signal (raw counts) (His-tagged BCL-xL; BCL-xL Rep-2, plate row K, 1.90735e-5 uM): 1346687 and 1389856
Alpha signal normalised to Maximum/Minimum (inhibition) (His-tagged BCL-2; BCL-2 Rep-1, 0.000305176 uM, 0.000305176 µM): 59.5965
inhibition at 0.000305176 µM (His-tagged BCL-2; BCL-2 Rep-1, 0.000305176 uM, read-out: Alpha signal normalised to Maximum/Minimum (inhibition)): 58.7%
Alpha signal normalised to Maximum/Minimum (inhibition) (His-tagged BCL-2; BCL-2 Rep-1, 0.0012207 uM, 0.0012207 µM): 60.0938
inhibition at 0.0012207 µM (His-tagged BCL-2; BCL-2 Rep-1, 0.0012207 uM, read-out: Alpha signal normalised to Maximum/Minimum (inhibition)): 49.1%
Alpha signal normalised to Maximum/Minimum (inhibition) (His-tagged BCL-2; BCL-2 Rep-1, 0.00488281 uM, 0.00488281 µM): 80.812
inhibition at 0.00488281 µM (His-tagged BCL-2; BCL-2 Rep-1, 0.00488281 uM, read-out: Alpha signal normalised to Maximum/Minimum (inhibition)): 82.4%
Alpha signal normalised to Maximum/Minimum (inhibition) (His-tagged BCL-2; BCL-2 Rep-1, 0.0195312 uM, 0.0195312 µM): 99.3807
inhibition at 0.0195312 µM (His-tagged BCL-2; BCL-2 Rep-1, 0.0195312 uM, read-out: Alpha signal normalised to Maximum/Minimum (inhibition)): 98.6%
Alpha signal normalised to Maximum/Minimum (inhibition) (His-tagged BCL-2; BCL-2 Rep-1, 0.078125 uM, 0.078125 µM): 99.9974
inhibition at 0.078125 µM (His-tagged BCL-2; BCL-2 Rep-1, 0.078125 uM, read-out: Alpha signal normalised to Maximum/Minimum (inhibition)): 100%
Alpha signal normalised to Maximum/Minimum (inhibition) (His-tagged BCL-2; BCL-2 Rep-1, 0.3125 uM, 0.3125 µM): 99.341
inhibition at 0.3125 µM (His-tagged BCL-2; BCL-2 Rep-1, 0.3125 uM, read-out: Alpha signal normalised to Maximum/Minimum (inhibition)): 98.9%
Alpha signal normalised to Maximum/Minimum (inhibition) (His-tagged BCL-2; BCL-2 Rep-1, 1.25 uM, 1.25 µM): 100.024
inhibition at 1.25 µM (His-tagged BCL-2; BCL-2 Rep-1, 1.25 uM, read-out: Alpha signal normalised to Maximum/Minimum (inhibition)): 99%
Alpha signal normalised to Maximum/Minimum (inhibition) (His-tagged BCL-2; BCL-2 Rep-1, 5 uM, 5 µM): 98.7813
inhibition at 5 µM (His-tagged BCL-2; BCL-2 Rep-1, 5 uM, read-out: Alpha signal normalised to Maximum/Minimum (inhibition)): 99%
Alpha signal (raw counts) (His-tagged BCL-2; BCL-2 Rep-2, 0.00488281 uM): 125701 and 136831
Alpha signal normalised to Maximum/Minimum (inhibition) (His-tagged BCL-2; BCL-2 Rep-2, 0.0195312 uM, 0.0195312 µM): 98.383
inhibition at 0.0195312 µM (His-tagged BCL-2; BCL-2 Rep-2, 0.0195312 uM, read-out: Alpha signal normalised to Maximum/Minimum (inhibition)): 98.1%
Alpha signal normalised to Maximum/Minimum (inhibition) (His-tagged BCL-2; BCL-2 Rep-2, 0.078125 uM, 0.078125 µM): 99.1744
inhibition at 0.078125 µM (His-tagged BCL-2; BCL-2 Rep-2, 0.078125 uM, read-out: Alpha signal normalised to Maximum/Minimum (inhibition)): 98.7%
Alpha signal normalised to Maximum/Minimum (inhibition) (His-tagged BCL-2; BCL-2 Rep-2, 0.3125 uM, 0.3125 µM): 99.3426
inhibition at 0.3125 µM (His-tagged BCL-2; BCL-2 Rep-2, 0.3125 uM, read-out: Alpha signal normalised to Maximum/Minimum (inhibition)): 98.9%
Alpha signal normalised to Maximum/Minimum (inhibition) (His-tagged BCL-2; BCL-2 Rep-2, 1.25 uM, 1.25 µM): 99.8148
inhibition at 1.25 µM (His-tagged BCL-2; BCL-2 Rep-2, 1.25 uM, read-out: Alpha signal normalised to Maximum/Minimum (inhibition)): 97.9%
Alpha signal normalised to Maximum/Minimum (inhibition) (His-tagged BCL-2; BCL-2 Rep-2, 5 uM, 5 µM): 100.138
inhibition at 5 µM (His-tagged BCL-2; BCL-2 Rep-2, 5 uM, read-out: Alpha signal normalised to Maximum/Minimum (inhibition)): 98%
Alpha signal (raw counts) (His-tagged BCL-2; BCL-2 Rep-2, plate row C, 1.25 uM): 32515 and 16642
Alpha signal (raw counts) (His-tagged BCL-2; BCL-2 Rep-2, plate row D, 0.3125 uM): 24362 and 20560
Alpha signal (raw counts) (His-tagged BCL-2; BCL-2 Rep-2, plate row E, 0.078125 uM): 25987 and 21955
Alpha signal (raw counts) (His-tagged BCL-2; BCL-2 Rep-2, plate row F, 0.0195312 uM): 31255 and 28520
Alpha signal (raw counts) (His-tagged BCL-2; BCL-2 Rep-2, plate row H, 0.0012207 uM): 409647 and 386712
Alpha signal (raw counts) (His-tagged BCL-2; BCL-2 Rep-2, plate row I, 0.000305176 uM): 513586 and 565907
Alpha signal (raw counts) (His-tagged BCL-2; BCL-2 Rep-2, plate row J, 7.62939e-5 uM): 711623 and 736033
Alpha signal (raw counts) (His-tagged BCL-2; BCL-2 Rep-2, plate row K, 1.90735e-5 uM): 598210 and 675191
SMILES: CC1(C)CCC(c2ccc(Cl)cc2)=C(CN2CCN(c3ccc(C(=O)NS(=O)(=O)c4ccc(N[C@H](CCN5CCOCC5)CSc5ccccc5)c(S(=O)(=O)C(F)(F)F)c4)cc3)CC2)C1 [ABT263, navitoclax]
